Measured values published in US20090214544A1, “Method of treating cd30 positive lymphomas” (MEDAREX, priority 2005, published 2009).

B1: 5F11: fully human anti-CD30 monoclonal antibody; VH SEQ ID NO: 10, VL SEQ ID NO: 12; VH 4-34 and VK L15 (antibody, chains of the INN, looked up, V domains shown)
VH: QVQLQQWGAGLLKPSETLSLTCAVYGGSFSAYYWSWIRQPPGKGLEWIGDINHGGGTNYNPSLKSRVTISVDTSKNQFSLKLNSVTAADTAVYYCASLTAYWGQGSLVTVSS
VL: DIQMTQSPTSLSASVGDRVTITCRASQGISSWLTWYQQKPEKAPKSLIYAASSLQSGVPSRFSGSGSGTDFTLTISSLQPEDFATYYCQQYDSYPITFGQGTRLEIK
notes: fully human anti-CD30 monoclonal antibody; VH 4-34 and VK L15

Tests used:
[1] = guidance for hydrocortisone equivalents; actual potency may vary slightly; cited from earlier work
[2] = system: Hodgkin's Disease (HD), CD30 positive lymphoma; assay: Combination therapy of anti-CD30 antibody and glucocorticosteroid in patients with Hodgkin's Disease; format: in vivo, human
Procedure: The patient, diagnosed with HD, received 5 mg/kg anti-CD30 antibody 5F11 by i.v. infusion once per day per week for 3 weeks. The week after completing antibody therapy (i.e., fourth week from start of therapy), the patient received 40 mg oral dexamethasone once per day for 2 days; one month later the patient received another 40 mg oral dexamethasone once per day for 4 days; two weeks later the patient received a third regimen of 40 mg oral dexamethasone once per day for 4 days.
Patient 2, diagnosed with HD, received 15 mg/kg anti-CD30 antibody 5F11 by i.v. infusion once per day per week for 3 weeks. At the start of week 3 of antibody therapy, the patient received one dose of 50 mg oral dexamethasone. After completion of antibody therapy (i.e., at the beginning of week four following the start of therapy), the patient received one dose of 100 mg oral prednisolone.
Patient 4, diagnosed with HD, received 1 mg/kg anti-CD30 antibody […] by i.v. infusion once per day per week for 3 weeks. On the second day of week 1 after beginning therapy, the patient received 40 mg oral dexamethasone once per day for 4 days, followed by no steroid therapy for 10 days. Thus, a dexamethasone cycle was completed over a 14 day period. For this patient, 8 cycles of dexamethasone therapy were completed over a period of 4 months.

[3] = system: T cell lymphoma, CD30 positive lymphoma; assay: Combination therapy of anti-CD30 antibody and glucocorticosteroid in a patient with T cell lymphoma; format: in vivo, human; conditions: Patient 3, T cell lymphoma; 40 mg oral dexamethasone daily for 4 days, then 50 mg oral prednisolone daily for 20 days; 15 mg/kg 5F11 i.v. once per week for 3 weeks from second week
Procedure: Patient 3, diagnosed with T cell lymphoma, received 40 mg oral dexamethasone once per day for 4 days. On day 5, dexamethasone treatment ceased and 50 mg oral prednisolone was administered once per day for 20 days. At the beginning of the second week of steroid therapy, antibody therapy was initiated by administering 15 mg/kg anti-CD30 antibody 5F11 by i.v. infusion once per day per week for 3 weeks.

[4] = system: ALCL and various HD-derived cell lines; conditions: in vitro and in vivo; Borchmann et al., Blood 2003; cited from earlier work

Molecule | Relative potency in mg to hydrocortisone [1] | also measured
C[C@]12C=CC(=O)C=C1CC[C@@H]1[C@@H]2[C@@H](O)C[C@@]2(C)[C@H]1CC[C@]2(O)C(=O)CO [Prednisolone] | 4 | 
C[C@]12C=CC(=O)C=C1CC[C@H]1[C@@H]3C[C@@H](O)[C@](O)(C(=O)CO)[C@@]3(C)C[C@H](O)[C@@]12F [Triamcinolone] | 5 | 
C[C@]12CCC(=O)C=C1CC[C@@H]1[C@@H]2[C@@H](O)C[C@@]2(C)[C@H]1CC[C@]2(O)C(=O)CO [Cortisol] | 1.25 | 
C[C@]12CCC(=O)C=C1CC[C@@H]1[C@@H]2[C@@H](O)C[C@@]2(C)[C@H]1CC[C@]2(O)C(=O)CO [Hydrocortisone] | 1 | 
C[C@]12CCC(=O)C=C1CC[C@@H]1[C@@H]2C(=O)C[C@@]2(C)[C@H]1CC[C@]2(O)C(=O)CO [Cortisone] | 0.8 | 
B1 |  | clinical response ([2]; Patient 1, HD, 5 mg/kg 5F11 i.v. once per week for 3 weeks, then 40 mg oral dexamethasone once per day for 2 days, 4 days and 4 days (three regimens)): partial response; clinical response ([2]; Patient 2, HD, 15 mg/kg 5F11 i.v. once per week for 3 weeks, one dose 50 mg oral dexamethasone at week 3, one dose 100 mg oral prednisolone at week 4): partial response, which improved to complete a response; clinical response ([2]; Patient 4, HD, 1 mg/kg antibody i.v. once per week for 3 weeks, 8 cycles of 40 mg oral dexamethasone daily for 4 days per 14 days over 4 months): partial response; clinical response [3]: complete response; efficacy against ALCL and various HD-derived cell lines [4]: shown efficacy
